# Patent US12458605B2, “Lipid nanoparticle” (National University Corporation Hokkaido University, priority 2020, dated 2025)
# Legend:
# [1] = tested on: liver; assay: In vivo Fluc activity of FlucmRNA-loaded LNP by in vivo imaging, liver; settings: Balb/c mice, 6 hours; for Fluc Activity in liver: FlucmRNA-loaded LNP i.v. 0.1 mg mRNA/kg; for Fluc activity in the liver, compared with CL15F6: 0.1 mg mRNA/kg, versus LNP comprising CL15F6 (Table 7)
# Outline: (§1)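 Female Balb/c mice, 7 weeks old, received LNP i.v. at 0.1 mg mRNA/kg. At 6 h, luciferin was given via tail vein at 1.5 mg per mouse, and liver and spleen luminescence was imaged as Avg Radiance [p/s/cm2/sr] near 560 nm.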
# [2] = tested on: spleen; assay: In vivo Fluc activity of FlucmRNA-loaded LNP by in vivo imaging, spleen; settings: Balb/c mice, 6 hours; for Fluc Activity in spleen: FlucmRNA-loaded LNP i.v. 0.1 mg mRNA/kg; for Fluc activity in the spleen, compared with CL4F6 / Fluc activity in the spleen, compared with CL15F6: 0.1 mg mRNA/kg; for Fluc activity in the spleen, compared with CL4F6: versus LNP comprising CL4F6 (Tables 5 and 6); for Fluc activity in the spleen, compared with CL15F6: versus LNP comprising CL15F6 (Table 7)
# Outline: as §1
# [3] = siRNA/mRNA encapsulation rate by Ribogreen reagent (section IV); format: physicochemical; settings: for % siRNA encapsulation: F7siRNA-loaded LNP, 50:10:38.5:1.5, N/P ratio 6; for % mRNA encapsulation: FlucmRNA-loaded LNP, 50:10:38.5:1.5
# Outline: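 LNPs diluted in TE buffer to 8 μg/mL nucleic acid for surface RNA, or to 1.2 μg/mL with 1% Triton X-100 for total RNA. RiboGreen fluorescence (ex 485/em 528 nm) quantified against a Triton-containing standard curve (0-2.5 μg/mL). Encapsulation % = (total − surface)/total × 100.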
# [4] = Storage stability of FlucmRNA-loaded LNP at −80, 5, 25 and 40° C.; format: physicochemical; settings: for period for which quality remained good, −80° C.: maximum storage period 1 week; for period for which quality remained good, 5° C. / period for which quality remained good, 25° C. / period for which quality remained good, 40° C. (weeks): maximum storage period 5 weeks
# Outline: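 FlucmRNA-loaded LNPs held at −80, 5, 25 or 40° C; at each time point size, PDI and encapsulation measured. Quality deemed maintained while size stays within ±20 nm of preparation day, PDI ≤0.2 and encapsulation ≥80%; value is the period meeting all three.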
# [5] = tested on: F7; assay: In vivo F7 knockdown, plasma F7 enzyme activity (BIOPHEN FVII), Balb/c mice; settings: for F7 enzyme activity (%) / F7 enzyme activity (Ratio using MC3 as 1): i.v. 0.025 mg siRNA/kg, plasma at 24 hours; for F7 enzyme activity (%): untreated mice as 100%; for knockdown activity, compared with MC3: F7siRNA-loaded LNP, versus LNP comprising MC3; for F7 enzyme activity (Ratio using MC3 as 1): relative plasma F7 activity of MC3 LNP as 1
# Outline: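 Female Balb/c mice, 5 weeks old, received F7 siRNA lipid nanoparticles i.v. at 0.025 mg siRNA/kg; plasma F7 activity measured chromogenically (BIOPHEN FVII) 24 h later. Values are % of untreated mice, also expressed as a ratio to MC3-containing nanoparticles set at 1.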
# [6] = Average particle size (ζ-Average) and PDI by dynamic light scattering (Zetasizer Nano ZSP); format: physicochemical
# Outline: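 Lipid nanoparticles dispersed in PBS(−) were sized by dynamic light scattering, giving the ζ-Average diameter and polydispersity index (PDI).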
# [7] = F7siRNA-loaded LNP, 50:10:38.5:1.5, N/P ratio 6
# [8] = FlucmRNA-loaded LNP, 50:10:38.5:1.5
# [9] = FlucmRNA-loaded LNP, lipid:DSPC:cholesterol:DMG-PEG2K 50:10:38.5:1.5
Structure (SMILES),Fluc Activity in liver [1],Fluc Activity in spleen [2],% siRNA encapsulation [3] [%],% mRNA encapsulation [3] [%],"period for which quality remained good, −80° C. [4] [week]","period for which quality remained good, 5° C. [4] [weeks]","period for which quality remained good, 25° C. [4] [weeks]","period for which quality remained good, 40° C. (weeks) [4]",F7 enzyme activity (%) [5] [%],"PDI [6, 7]","ζ-Average (nm) [6, 7] [nm]","PDI [6, 8]","ζ-Average (nm) [6, 9] [nm]","Fluc activity in the spleen, compared with CL4F6 [2]","knockdown activity, compared with MC3 [5]",F7 enzyme activity (Ratio using MC3 as 1) [5],"Fluc activity in the liver, compared with CL15F6 [1]","Fluc activity in the spleen, compared with CL15F6 [2]"
CCCCCCCCCC(CCCCCCCCC)C(=O)OCCCCCCC(O)(CCCCCCOC(=O)C(CCCCCCCCC)CCCCCCCCC)CCCCN(CCC)CCC [CL4F 11-9],6.86E+07 Avg Radiance [p/s/cm2/sr],1.19E+06 Avg Radiance [p/s/cm2/sr],100.1,99.8,1,5,5,5 weeks,47.7,0.009,90.93,0.014,81.13,,,,,
CCCCCCCC(CCCCC)C(=O)OCCCCCCC(O)(CCCCCCOC(=O)C(CCCCC)CCCCCCC)CCCCN(CCC)CCC (stereo not shown) [CL4F 9-5],6.84E+07 Avg Radiance [p/s/cm2/sr],9.53E+06 Avg Radiance [p/s/cm2/sr],99.9,99.0,1,5,5,5 weeks,,0.032,99.72,0.048,89.41,higher Fluc activity,higher knockdown activity,0.43,,
CCCCCCCCCCCCC(CC)C(=O)OCCCCCCC(O)(CCCCCCOC(=O)C(CC)CCCCCCCCCCCC)CCCCOC(=O)C1CCN(C)CC1 (stereo not shown) [CL15F 14-2],1.03E+07 Avg Radiance [p/s/cm2/sr],7.58E+06 Avg Radiance [p/s/cm2/sr],100.2,95.70,1,5,5,5 weeks,,0.13,143.9,0.117,158.90,,,1.82,higher Fluc activity,higher Fluc activity
CCCCCCCCCC(CCCCC)C(=O)OCCCCCCC(O)(CCCCCCOC(=O)C(CCCCC)CCCCCCCCC)CCCCN(CCC)CCC (stereo not shown) [CL4F 11-5],4.50E+07 Avg Radiance [p/s/cm2/sr],1.03E+06 Avg Radiance [p/s/cm2/sr],100.1,99.6,1,5,5,1 week weeks,4.3,0.012,89.72,0.019,81.81,,,,,
CCCCCCCCCCC(CCCCCCCCCC)C(=O)OCCCCCCC(O)(CCCCCCOC(=O)C(CCCCCCCCCC)CCCCCCCCCC)CCCCN(CCC)CCC [CL4F 12-10],3.09E+07 Avg Radiance [p/s/cm2/sr],2.77E+05 Avg Radiance [p/s/cm2/sr],99.2,99.6,1,5,5,5 weeks,80.6,0.015,85.62,0.019,75.85,,,,,
CCCCCCCCC(CCCC)C(=O)OCCCCCCC(O)(CCCCCCOC(=O)C(CCCC)CCCCCCCC)CCCCOC(=O)C1CCN(C)CC1 (stereo not shown) [CL15F 10-4],2.07E+06 Avg Radiance [p/s/cm2/sr],3.97E+06 Avg Radiance [p/s/cm2/sr],100.3,98.7,1,5,5,5 weeks,,0.021,126.8,0.030,146.10,,,2.00,,
CCCCCCCCCCC(CCCC)C(=O)OCCCCCCC(O)(CCCCCCOC(=O)C(CCCC)CCCCCCCCCC)CCCCN(CCC)CCC (stereo not shown) [CL4F 12-4],7.70E+07 Avg Radiance [p/s/cm2/sr],3.19E+06 Avg Radiance [p/s/cm2/sr],100.1,99.0,1,5,5,1 week weeks,5,0.011,94.55,0.015,84.57,higher Fluc activity,,,,
CCCCCCCCC(CCCCCCCC)C(=O)OCCCCCCC(O)(CCCCCCOC(=O)C(CCCCCCCC)CCCCCCCC)CCCCOC(=O)C1CCN(C)CC1 [CL15F 10-8],1.35E+07 Avg Radiance [p/s/cm2/sr],8.42E+06 Avg Radiance [p/s/cm2/sr],100.6,99.78,1,5,5,5 weeks,,0.041,99.44,0.026,99.84,,higher knockdown activity,0.52,higher Fluc activity,higher Fluc activity
CCCCCCCCCC(CCCCC)C(=O)OCCCCCCC(O)(CCCCCCOC(=O)C(CCCCC)CCCCCCCCC)CCCCOC(=O)C1CCN(C)CC1 (stereo not shown) [CL15F 11-5],9.38E+06 Avg Radiance [p/s/cm2/sr],5.01E+06 Avg Radiance [p/s/cm2/sr],100.3,99.8,1,5,5,5 weeks,,0.017,109.6,0.010,108.90,,higher knockdown activity,0.78,higher Fluc activity,
CCCCCC(CCCCC)C(=O)OCCCCCCC(O)(CCCCCCOC(=O)C(CCCCC)CCCCC)CCCCOC(=O)C1CCN(C)CC1 [CL15F 7-5],2.15E+06 Avg Radiance [p/s/cm2/sr],1.37E+07 Avg Radiance [p/s/cm2/sr],98.8,97.6,0,5,5,5 weeks,,0.039,180.6,0.007,196.00,,,1.74,,higher Fluc activity
CCCCCCC(CCCCCC)C(=O)OCCCCCCC(O)(CCCCCCOC(=O)C(CCCCCC)CCCCCC)CCCCOC(=O)C1CCN(C)CC1 [CL15F 8-6],1.92E+06 Avg Radiance [p/s/cm2/sr],5.02E+06 Avg Radiance [p/s/cm2/sr],100.2,99.2,1,5,5,5 weeks,,0.056,121.2,0.011,132.00,,,1.60,,
